According to patent US11111238B2, “Coumarin derivatives, processes for their preparation and uses thereof for the treatment of cancer” (Lead Discovery Center GmbH, priority 2017, dated 2021):

Each molecule was assayed against mitochondrial RNA-polymerase (POLRMT) (Mus musculus, UniProt Q8BKF1) (assay: Homogeneous TR-FRET assay for mitochondrial transcription activity). Settings: homogeneous TR-FRET assay according to Example 4; activity class.
Assay type: biochemical
Text: The TR-FRET assay was basically conducted as described in WO2016/193,231A1, especially as described in example 1 (hereby incorporated by reference). With respect to the background of the mitochondrial transcription it is referred to Falkenberg et al. (2002) and Posse et al. (Posse et al., 2015). The method monitors the activity of mitochondrial RNA-polymerase via detection of the formation of its product, a 407 bp long RNA sequence. Detection of the product is facilitated by hybridization of two DNA-oligonucleotide probes to specific and adjacent sequences within the RNA product sequence. Upon annealing of the probes, two fluorophores that are coupled directly to an acceptor nucleotide probe (ATT0647, 5′) or introduced via a coupled streptavidin interacting with a biotinylated donor nucleotide probe on the other side (Europium cryptate, 3′) are brought into sufficient proximity to serve as a fluorescence-donor-acceptor pair as generally described in Walters and Namchuk (2003). Thus, a FRET signal at 665 nm is generated upon excitation at 340 nm.
Briefly, the protocol described here was applied for screening and activity determination in a low-volume 384-well microtiter plate with non-binding surface. For high-throughput application in the 1536-well microtiter plate format, volumes of the reagent mixes were adjusted, maintaining the volumetric ratio. Proteins POLRMT (NM_172551.3), TFAM (NM_009360.4) and TFB2 M (NM_008249.4) were diluted from their stocks to working concentrations of 150 nM, 1.8 μM and 330 nM respectively, in a dilution buffer containing 100 mM Tris-HCl pH 8.0, 200 mM NaCl, 10% (v/v) glycerole, 2 mM glutathione (GSH), 0.5 mM EDTA and 0.1 mg/mL BSA. Protein dilutions and template DNA, comprising a pUC18 plasmid encoding the mitochondrial light strand promoter, restriction linearized proximal to the promoter 3′-end (pUC-LSP), were mixed at the twofold final assay-concentration in a reaction buffer, containing 10 mM Tris-HCl pH 7.5, 10 mM MgCl2, 40 mM NaCl, 2 mM GSH, 0.01% (w/v) Tween-20 and 0.1 mg/mL BSA.
5 μL of this mix were dispensed, depending on the chosen microtiter plate format, using multi-channel pipettes or a Multidrop® dispenser (Thermo Fisher Scientific, Waltham Mass.) into the wells of a microtiter plate and incubated at room temperature (RT) for 10 min. Chemical compounds under scrutiny in the assay were applied using contact-free acoustic droplet-dispensing (Echo520® Labcyte Inc., Sunnyvale Calif.) from 10 mM compound stocks in 100% DMSO, to a final concentration of 10 μM or in serial dilution series of the required concentration range. Equal amounts of DMSO without any compound were added to positive control samples, followed by an incubation step at RT for 10 min.
The enzymatic reaction was started by the addition of 5 μL of a mix of […] in reaction buffer to a final concentration of 500 μM each. No nucleotide mix was added to negative control samples. The content of the wells was mixed using a VarioTeleshaker™ (Thermo Fisher Scientific, Waltham Mass.) at 1,500 rpm for 45 sec after which the microtiter plate was centrifuged at 500×g for 1 min. The samples were incubated for 2 h at RT with humidity control to avoid evaporation. The detection reagents were prepared in a buffer that was composed, such that the enzymatic reaction was terminated due to chelating of Mg-ions and increased ionic strength, containing 50 mM Tris-HCl pH 7.5, 700 mM NaCl, 20 mM EDTA, and 0.01% (w/v) Tween-20. Importantly Eu-cryptate-coupled streptavidin had to be pre-incubated with a 100-fold molar excess of a random sequence oligonucleotide for 10 min at RT in the dark to block unspecific binding of single stranded RNA to the protein. Subsequently, the blocked streptavidin(—Eu) was mixed with the DNA-probes on ice and kept away from light until use. […]

Chain of mitochondrial RNA-polymerase (POLRMT) (Q8BKF1 42-1207): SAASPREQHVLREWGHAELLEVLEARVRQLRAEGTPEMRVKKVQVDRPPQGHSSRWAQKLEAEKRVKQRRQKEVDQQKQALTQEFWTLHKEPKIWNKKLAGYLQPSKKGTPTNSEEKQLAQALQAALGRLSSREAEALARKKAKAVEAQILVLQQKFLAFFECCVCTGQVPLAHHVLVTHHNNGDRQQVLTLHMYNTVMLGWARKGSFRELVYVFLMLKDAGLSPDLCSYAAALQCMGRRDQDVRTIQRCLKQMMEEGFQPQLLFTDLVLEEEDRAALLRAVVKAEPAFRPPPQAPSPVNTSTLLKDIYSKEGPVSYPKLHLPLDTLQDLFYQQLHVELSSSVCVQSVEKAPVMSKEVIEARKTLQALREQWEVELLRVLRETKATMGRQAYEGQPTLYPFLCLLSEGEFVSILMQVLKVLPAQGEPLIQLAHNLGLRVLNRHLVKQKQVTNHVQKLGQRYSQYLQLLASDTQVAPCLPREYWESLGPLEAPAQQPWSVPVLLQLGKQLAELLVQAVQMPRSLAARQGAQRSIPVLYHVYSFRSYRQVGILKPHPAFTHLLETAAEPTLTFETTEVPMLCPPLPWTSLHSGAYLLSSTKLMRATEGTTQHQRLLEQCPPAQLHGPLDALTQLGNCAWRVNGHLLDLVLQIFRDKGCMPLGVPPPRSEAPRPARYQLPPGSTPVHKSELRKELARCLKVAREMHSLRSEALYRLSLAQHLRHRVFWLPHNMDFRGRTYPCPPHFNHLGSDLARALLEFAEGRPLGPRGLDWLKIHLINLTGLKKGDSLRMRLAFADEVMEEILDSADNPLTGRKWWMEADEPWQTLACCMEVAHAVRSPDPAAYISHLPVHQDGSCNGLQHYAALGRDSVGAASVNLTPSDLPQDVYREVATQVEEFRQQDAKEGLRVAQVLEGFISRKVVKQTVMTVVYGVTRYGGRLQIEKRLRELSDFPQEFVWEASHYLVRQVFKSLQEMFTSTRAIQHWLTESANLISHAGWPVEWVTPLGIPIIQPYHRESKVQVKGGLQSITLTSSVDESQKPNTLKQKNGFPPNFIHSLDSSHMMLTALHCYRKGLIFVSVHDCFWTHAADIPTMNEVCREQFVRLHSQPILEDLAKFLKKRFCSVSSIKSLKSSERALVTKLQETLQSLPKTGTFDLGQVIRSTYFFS

| Structure (SMILES) | IC50 |
| --- | --- |
| CC(Oc1ccc2c(-c3ccccc3Cl)cc(=O)oc2c1)C(=O)N1CCCC(C#N)C1 (stereo not drawn) [Compound 48, 1-[2-[4-(2-chlorophenyl)-2-oxo-chromen-7-yl]oxypropanoyl]piperidine-3-carbonitrile] | < 20 nM |
| CC(C)NC(=O)C(C)Oc1ccc2c(-c3cccc(F)c3Cl)cc(=O)oc2c1 (stereo not drawn) [Compound 49, 2-[4-(2-chloro-3-fluoro-phenyl)-2-oxo-chromen-7-yl]oxy-N-isopropyl-propanamide] | < 20 nM |
| CC(Oc1ccc2c(-c3cccc(F)c3Cl)cc(=O)oc2c1)C(=O)N1CCC[C@H](C(=O)O)C1 (stereo partly drawn) [Compound 50, (3S)-1-[2-[4-(2-chloro-3-fluoro-phenyl)-2-oxo-chromen-7-yl]oxypropanoyl]piperidine-3-carboxylic acid] | < 20 nM |
| CNC(=O)C(C)Oc1ccc2c(-c3ccccc3Cl)cc(=O)oc2c1 (stereo not drawn) [Compound 51, 2-[4-(2-chlorophenyl)-2-oxo-chromen-7-yl]oxy-N-methyl-propanamide] | < 20 nM |
| CC(Oc1ccc2c(-c3cccc(F)c3Cl)cc(=O)oc2c1)C(=O)N1CCCC(S(N)(=O)=O)C1 (stereo not drawn) [Compound 52, 1-[2-[4-(2-chloro-3-fluoro-phenyl)-2-oxo-chromen-7-yl]oxypropanoyl]piperidine-3-sulfonamide] | < 20 nM |
| Cc1ccccc1-c1cc(=O)oc2cc(OC(C)C(=O)N3CCC[C@@H](C(=O)O)C3)ccc12 (stereo partly drawn) [Compound 53, (3R)-1-[2-[4-(o-tolyl)-2-oxo-chromen-7-yl]oxypropanoyl]piperidine-3-carboxylic acid] | < 20 nM |
| Cc1ccccc1-c1cc(=O)oc2cc(O[C@H](C)C(=O)OC(C)C)ccc12 [Compound 55, (R)-isopropyl 2-((2-oxo-4-(o-tolyl)-2H-chromen-7-yl)oxy)propanoate] | < 20 nM |
| CCOC(=O)C(C)Oc1ccc2c(-c3cccc(F)c3Cl)cc(=O)oc2c1 (stereo not drawn) [Compound 57, ethyl 2-[4-(2-chloro-3-fluoro-phenyl)-2-oxo-chromen-7-yl]oxypropanoate] | 20 to 100 nM |
| CCOC(=O)C(C)Oc1ccc2c(-c3ccccc3C)cc(=O)oc2c1 (stereo not drawn) [Compound 58, ethyl 2-[4-(o-tolyl)-2-oxo-chromen-7-yl]oxypropanoate] | 20 to 100 nM |
| Cc1ccccc1-c1cc(=O)oc2cc(OC(C)C(=O)N3CCC(CC(=O)O)CC3)ccc12 (stereo not drawn) [Compound 60, 2-[1-[2-[4-(o-tolyl)-2-oxo-chromen-7-yl]oxypropanoyl]-4-piperidyl]acetic acid] | 20 to 100 nM |
| CC(Oc1ccc2c(-c3cccc(F)c3Cl)cc(=O)oc2c1)C(=O)NC1CC1 (stereo not drawn) [Compound 61, 2-[4-(2-chloro-3-fluoro-phenyl)-2-oxo-chromen-7-yl]oxy-N-cyclopropyl-propanamide] | 20 to 100 nM |
| Cc1ccccc1-c1cc(=O)oc2cc(OC(C)C(=O)N3CCC(S(N)(=O)=O)C3)ccc12 (stereo not drawn) [Compound 63, 1-[2-[4-(o-tolyl)-2-oxo-chromen-7-yl]oxypropanoyl]pyrrolidine-3-sulfonamide] | 20 to 100 nM |
| CC(C)OC(=O)[C@@H](C)Oc1ccc2c(-c3ccccc3Cl)cc(=O)oc2c1 [Compound 64, isopropyl (2R)-2-[4-(2-chlorophenyl)-2-oxo-chromen-7-yl]oxypropanoate] | 20 to 100 nM |
| CC(C)NC(=O)C(C)Oc1ccc2c(-c3ccc(F)cc3Cl)cc(=O)oc2c1 (stereo not drawn) [Compound 65, 2-[4-(2-chloro-4-fluoro-phenyl)-2-oxo-chromen-7-yl]oxy-N-isopropyl-propanamide] | 20 to 100 nM |
| CC(Oc1ccc2c(-c3ccccc3Cl)cc(=O)oc2c1)C(=O)N1CCC[C@@H](C(=O)N(C)C)C1 (stereo partly drawn) [Compound 67, (3R)-1-[2-[4-(2-chlorophenyl)-2-oxo-chromen-7-yl]oxypropanoyl]-N,N-dimethyl-piperidine-3-carboxamide] | 20 to 100 nM |
| CCNC(=O)C(C)Oc1ccc2c(-c3cccc(F)c3Cl)cc(=O)oc2c1 (stereo not drawn) [Compound 68, 2-[4-(2-chloro-3-fluoro-phenyl)-2-oxo-chromen-7-yl]oxy-N-ethyl-propanamide] | 20 to 100 nM |
| Cc1ccccc1-c1cc(=O)oc2cc(OC(C)C(=O)N3CCC(F)(F)CC3)ccc12 (stereo not drawn) [Compound 71, 7-[2-(4,4-difluoro-1-piperidyl)-1-methyl-2-oxo-ethoxy]-4-(o-tolyl)chromen-2-one] | 20 to 100 nM |
| Cc1ccccc1-c1cc(=O)oc2cc(OC(C)C(=O)N3CCCC(CC(=O)O)C3)ccc12 (stereo not drawn) [Compound 72, 2-[1-[2-[4-(o-tolyl)-2-oxo-chromen-7-yl]oxypropanoyl]-3-piperidyl]acetic acid] | 20 to 100 nM |
| Cc1ccccc1-c1cc(=O)oc2cc(OC(C)C(=O)N3CCCC(S(C)(=N)=O)C3)ccc12 (stereo not drawn) [Compound 73, 7-[1-methyl-2-[3-(methylsulfonimidoyl)-1-piperidyl]-2-oxo-ethoxy]-4-(o-tolyl)chromen-2-one] | 20 to 100 nM |
| CC(Oc1ccc2c(-c3ccccc3Cl)cc(=O)oc2c1)C(=O)N1CCC(F)(F)CC1 (stereo not drawn) [Compound 74, 4-(2-chlorophenyl)-7-[2-(4,4-difluoro-1-piperidyl)-1-methyl-2-oxo-ethoxy]chromen-2-one] | 20 to 100 nM |
| CCOC(=O)C1(C)CCCN(C(=O)C(C)Oc2ccc3c(-c4ccccc4Cl)cc(=O)oc3c2)C1 (stereo not drawn) [Compound 75, ethyl 1-[2-[4-(2-chlorophenyl)-2-oxo-chromen-7-yl]oxypropanoyl]-3-methyl-piperidine-3-carboxylate] | 20 to 100 nM |
| CC(Oc1ccc2c(-c3ccccc3Cl)cc(=O)oc2c1)C(=O)N1CCC[C@H](C(=O)N(C)C)C1 (stereo partly drawn) [Compound 76, (3S)-1-[2-[4-(2-chlorophenyl)-2-oxo-chromen-7-yl]oxypropanoyl]-N,N-dimethyl-piperidine-3-carboxamide] | 20 to 100 nM |
| CC(Oc1ccc2c(-c3ccccc3Cl)cc(=O)oc2c1)C(=O)N1CCC(S(N)(=O)=O)C1 (stereo not drawn) [Compound 77, 1-[2-[4-(2-chlorophenyl)-2-oxo-chromen-7-yl]oxypropanoyl]pyrrolidine-3-sulfonamide] | 20 to 100 nM |
| CCOC(=O)C(C)Oc1ccc2c(-c3ccc(F)cc3Cl)cc(=O)oc2c1 (stereo not drawn) [Compound 82, Ethyl 2-((4-(2-chloro-4-fluorophenyl)-2-oxo-2H-chromen-7-yl)oxy)propanoate] | 20 to 100 nM |
| COC(=O)CC1CCN(C(=O)C(C)Oc2ccc3c(-c4ccccc4C)cc(=O)oc3c2)CC1 (stereo not drawn) [Compound 83, methyl 2-[1-[2-[4-(o-tolyl)-2-oxo-chromen-7-yl]oxypropanoyl]-4-piperidyl]acetate] | 20 to 100 nM |
| CCOC(=O)CC1CCCN(C(=O)C(C)Oc2ccc3c(-c4ccccc4C)cc(=O)oc3c2)C1 (stereo not drawn) [Compound 87, ethyl 2-[1-[2-[4-(o-tolyl)-2-oxo-chromen-7-yl]oxypropanoyl]-3-piperidyl]acetate] | 20 to 100 nM |
| CCOC(=O)C1(C)CCCN(C(=O)C(C)Oc2ccc3c(-c4ccccc4C)cc(=O)oc3c2)C1 (stereo not drawn) [Compound 88, ethyl 3-methyl-1-[2-[4-(o-tolyl)-2-oxo-chromen-7-yl]oxypropanoyl]piperidine-3-carboxylate] | 20 to 100 nM |
| CC(Oc1ccc2c(-c3ccc(F)cc3Cl)cc(=O)oc2c1)C(=O)NC1CC1 (stereo not drawn) [Compound 90, 2-[4-(2-chloro-4-fluoro-phenyl)-2-oxo-chromen-7-yl]oxy-N-cyclopropyl-propanamide] | 20 to 100 nM |
| CC(Oc1ccc2c(-c3cccc(F)c3Cl)cc(=O)oc2c1)C(=O)O (stereo not drawn) [Compound 94, 2-[4-(2-chloro-3-fluoro-phenyl)-2-oxo-chromen-7-yl]oxypropanoic acid] | 20 to 100 nM |
| CCOC(=O)C1(C)CCCN(C(=O)C(C)Oc2ccc3c(-c4ccc(F)cc4Cl)cc(=O)oc3c2)C1 (stereo not drawn) [Compound 95, ethyl 1-[2-[4-(2-chloro-4-fluoro-phenyl)-2-oxo-chromen-7-yl]oxypropanoyl]-3-methyl-piperidine-3-carboxylate] | 100 to 1000 nM |
